Results from patent US11839613B2, “Pyrimidine derivatives as PGE2 receptor modulators” (IDORSIA PHARMACEUTICALS LTD, priority 2017, dated 2023).

Columns and labels:
PTGER4 (EP4) = PTGER4 (EP4) (Homo sapiens (Human), UniProt P35408); assay: cell-based
Description: The system is based on the Enzyme Fragment Complementation Technology. Two complementing fragments of the b-galactosidase enzyme are expressed within stably transfected cells. The larger portion of b-gal, termed EA for Enzyme Acceptor, is fused to the C-terminus of b-arrestin 2. The smaller fragment, termed ProLink™ tag, is fused to PTGER2 (EP2) or PTRGER4 (EP4) at the C-terminus. Upon activation, b-arrestin is recruited which forces the interaction of ProLink and EA, allowing complementation of the two fragments of b-gal and the formation of a functional enzyme which is capable of hydrolysing the substrate and generating a chemiluminescent signal.
Plate is incubated at 37° C., 5% CO2 for 24 hours.
Stock solutions of test compounds are made at a concentration of 10 mM in DMSO, and serially diluted in DMSO to concentrations required for inhibition dose response curves (tested concentration range 10 μM-2 nM or 1 μM-0.2 nM).
Five microliters of diluted compounds are transferred into the assay plate. Plate is pre-incubated 15 minutes at 37° C. Then five microliters of PGE2 (final conc. 20 nM) are transferred into the assay plate. Plate is incubated 120 minutes at 37° C.
Twelve I of reagent are transferred to the assay plate and incubate for 1 hour at RT in the dark. Luminescence counts are read on a BMG Fluostar Optima reader according to manufacturer's instructions.
For each compound concentration calculate of the percentage of activity compared to DMSO control value as average ±STDEV. (each concentration is measured in duplicate)

PTGER2 (EP2) = PTGER2 (EP2) (Homo sapiens (Human), UniProt P43116); assay: hEP2 b-arrestin assay (PathHunter HEK 293 PTGER2 b-arrestin cells); type: cell-based; conditions: antagonistic activity, beta-arrestin assay; read-out: hEP2 b-arr IC50
Method: Plate is pre-incubated 15 minutes at 37° C. Then five microliters of PGE2 (final conc. 5 μM) are transferred into the assay plate. Plate is incubated 120 minutes at 37° C.
(each concentration is measured in duplicate)

EP4 = EP4 (Homo sapiens (Human), UniProt P35408); assay: hEP4 cAMP assay (BT549 breast cancer cells, HTRF cAMP); type: cell-based; conditions: antagonistic activity, PGE2 6 nM
Method in brief: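 cAMP accumulation quantified by HTRF competition between cellular cAMP and d2-labeled cAMP for cryptate anti-cAMP antibody. Cells: endogenously EP4-expressing BT549, buffer with 2 mM IBMX; 45 min RT compound preincubation preceded 30 min RT challenge with PGE2 at 6 nM final.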

EP2 = EP2 (Homo sapiens (Human), UniProt P43116); assay: hEP2 cAMP assay (SF295 glioblastoma cells, HTRF cAMP); type: cell-based; conditions: antagonistic activity
Method in brief: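 PGE2-driven cAMP accumulation was measured by HTRF in SF295 cells, which express endogenous EP2 only. Cells in assay buffer with 2 mM IBMX were pre-incubated 45 min at RT, then incubated 30 min at RT. Detection used competition between cellular cAMP and d2-cAMP for a cryptate anti-cAMP antibody.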

Sequence of PTGER4 (EP4) (P35408 whole entry): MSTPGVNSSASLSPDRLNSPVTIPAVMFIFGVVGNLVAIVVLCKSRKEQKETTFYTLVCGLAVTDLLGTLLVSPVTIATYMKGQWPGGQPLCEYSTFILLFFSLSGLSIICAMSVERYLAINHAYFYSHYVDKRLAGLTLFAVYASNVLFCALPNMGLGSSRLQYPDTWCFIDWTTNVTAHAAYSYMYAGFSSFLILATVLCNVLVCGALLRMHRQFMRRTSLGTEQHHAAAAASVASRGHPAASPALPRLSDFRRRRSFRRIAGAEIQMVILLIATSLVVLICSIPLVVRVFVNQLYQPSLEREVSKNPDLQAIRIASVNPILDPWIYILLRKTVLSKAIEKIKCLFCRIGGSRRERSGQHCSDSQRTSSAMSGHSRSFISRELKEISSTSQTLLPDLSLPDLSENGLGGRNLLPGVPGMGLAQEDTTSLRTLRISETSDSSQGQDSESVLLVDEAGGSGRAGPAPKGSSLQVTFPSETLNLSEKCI
Sequence of EP4 (P35408 whole entry): as above
Sequence of EP2 (P43116 whole entry): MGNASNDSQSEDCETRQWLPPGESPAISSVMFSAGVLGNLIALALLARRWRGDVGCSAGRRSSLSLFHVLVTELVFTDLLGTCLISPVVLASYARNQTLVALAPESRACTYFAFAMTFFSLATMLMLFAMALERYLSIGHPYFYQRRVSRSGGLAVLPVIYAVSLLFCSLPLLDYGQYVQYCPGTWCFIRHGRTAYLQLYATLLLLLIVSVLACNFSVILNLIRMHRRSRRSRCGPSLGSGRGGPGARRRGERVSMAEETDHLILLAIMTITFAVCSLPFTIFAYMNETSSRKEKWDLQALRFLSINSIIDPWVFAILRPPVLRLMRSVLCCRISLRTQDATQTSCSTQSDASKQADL
Sequence of PTGER2 (EP2) (P43116 whole entry): as above

Row | SMILES | IC50 (PTGER4 (EP4)) | IC50 (PTGER2 (EP2)) | IC50 (EP4) | IC50 (EP2)
1 | CCOc1cc2c(cc1CCNc1cc(-c3ccc(C(=O)O)c(OC4CCC4)c3)ncn1)OCCO2 [Ex 196, 2-Cyclobutoxy-4-{6-[2-(7-ethoxy-2,3-dihydro-benzo[1,4]dioxin-6-yl)-ethylamino]-pyrimidin-4-yl}-benzoic acid] | 199 nM | 21 nM | 217 nM | 37 nM
2 | CSc1cc(-c2cc(NCCc3ccc4occc4c3)ncn2)ccc1C(=O)O [Ex 248, 4-[6-(2-Benzofuran-5-yl-ethylamino)-pyrimidin-4-yl]-2-methylsulfanyl-benzoic acid] | 270 nM | 132 nM | 366 nM | 50 nM
3 | CCOc1cc(-c2cc(NCCc3ccc4c(ccn4C)c3)ncn2)sc1C(=O)O [Ex 65, 3-Ethoxy-5-{6-[2-(1-methyl-1H-indol-5-yl)-ethylamino]-pyrimidin-4-yl}-thiophene-2-carboxylic acid] | 33 nM | – | 35 nM | 304 nM
4 | CCOc1cc(-c2cc(NCCc3ccc4ccsc4c3)ncn2)ccc1C(=O)O [Ex 167, 4-[6-(2-Benzo[b]thiophen-6-yl-ethylamino)-pyrimidin-4-yl]-2-ethoxy-benzoic acid] | 361 nM | – | 166 nM | 714 nM
5 | CCOc1cc(-c2cc(NCCc3ccc4ccccc4c3F)ncn2)sc1C(=O)O [Ex 11, 3-Ethoxy-5-{6-[2-(1-fluoro-naphthalen-2-yl)-ethylamino]-pyrimidin-4-yl}-thiophene-2-carboxylic acid] | 13 nM | – | 7 nM | 277 nM
6 | CN1CCCc2cc(CCNc3cc(-c4cc(C(F)(F)F)c(C(=O)O)s4)ncn3)c(F)cc21 [Ex 72, 5-{6-[2-(7-Fluoro-1-methyl-1,2,3,4-tetrahydro-quinolin-6-yl)-ethylamino]-pyrimidin-4-yl}-3-trifluoromethyl-thiophene-2-carboxylic acid] | 37 nM | – | 39 nM | 892 nM
7 | CCOc1cc(-c2cc(NCCc3cc4c(cc3OC)CCCC4)ncn2)sc1C(=O)O [Ex 60, 3-Ethoxy-5-{6-[2-(3-methoxy-5,6,7,8-tetrahydro-naphthalen-2-yl)-ethylamino]-pyrimidin-4-yl}-thiophene-2-carboxylic acid] | 3 nM | – | 31 nM | 320 nM
8 | CCOc1cc(-c2cc(NCCc3ccc4scc(C)c4c3)ncn2)ccc1CC(=O)O [Ex 297] | 2120 nM | – | 592 nM | 782 nM
9 | CCOc1cc(-c2cc(NCCc3ccc4ccn(C)c4c3)ncn2)ccc1OCC(=O)O [Ex 207] | 234 nM | – | 248 nM | 673 nM
10 | CCOc1cc(-c2cc(NCCc3ccc4ccccc4c3)ncn2)sc1C(=O)O [Ex 36, 3-Ethoxy-5-[6-(2-naphthalen-2-yl-ethylamino)-pyrimidin-4-yl]-thiophene-2-carboxylic acid] | 20 nM | – | 18 nM | 557 nM
11 | CCOc1cc(-c2cc(NCCc3ccc4c(c3)c(C)cn4C)ncn2)sc1C(=O)O [Ex 133] | 42 nM | – | 109 nM | 482 nM
12 | CCOc1cc(-c2cc(NCCc3c(F)cc4ncccc4c3F)ncn2)sc1-c1noc(=O)[nH]1 [Example 346, 3-(5-{6-[2-(5,7-Difluoro-quinolin-6-yl)-ethylamino]-pyrimidin-4-yl}-3-ethoxy-thiophen-2-yl)-[1,2,4]oxadiazol-5(4H)-one] | 57 nM | – | 110 nM | 282 nM
13 | CCOc1cc(-c2cc(NCCc3ccc4ccccc4c3C)ncn2)sc1/C=C/C(=O)O [Ex 130] | 23 nM | – | 106 nM | 423 nM
14 | CCOc1cc(-c2cc(NCCc3cc4c(cc3OC)OCCCO4)ncn2)sc1C(=O)O [Ex 21, 3-Ethoxy-5-{6-[2-(8-methoxy-3,4-dihydro-2H-benzo[b][1,4]dioxepin-7-yl)-ethylamino]-pyrimidin-4-yl}-thiophene-2-carboxylic acid] | 58 nM | – | 12 nM | 912 nM
